{
  "source": "paper PMC11627468",
  "about": "“Novel enzyme‐resistant pancreatic polypeptide analogs evoke pancreatic beta‐cell rest, enhance islet cell turnover, and inhibit food intake in mice” (Biofactors (Oxford, England), 2024)",
  "key": {"[1]": {"test": "In vitro DPP‐4 degradation", "format": "in vitro ADME, human", "conditions": "isolated enzyme; peptide 50 μg with purified human DPP‐4 (5 μL, 0.01 U/L), 37°C, 8 h; stopped with 10% (v/v) trifluoroacetic acid; rp‐HPLC C‐18, UV 214 nm; peaks by MALDI‐MS; read-out: % intact peptide after 8 h DPP‐4 incubation", "procedure": "PP peptides (50 μg) were incubated at 37°C for 0–8 h with 5 μL of purified human DPP‐4 enzyme (0.01 U/L, Sigma‐Aldrich, Gillingham, UK). Degradation reactions were terminated via the addition of 10 μL 10% (v/v) trifluoroacetic acid/water solution. Reaction mixes were separated by reverse phase rp‐HPLC using a Phenomenex C‐18 analytical column (250 × 4.6 mm^2) with UV absorbance detection at 214 nm (ThermoQuest SpectraSystem UV2000 detector). HPLC peaks of interest were collected and analyzed by MALDI‐TOF MS on a Perseptive Biosystems Voyager‐DE Biospectrometry (Hertfordshire, UK)."}, "[2]": {"test_system": "C57BL/6 mice", "test": "Acute food intake in overnight fasted mice", "format": "in vivo", "conditions": "i.p., overnight fasted mice", "procedure": "(§1) Acute in vivo studies were conducted in groups (n = 6) of 4‐month‐old male C57BL/6 mice (Envigo, Huntington, UK). All mice were maintained on standard rodent chow (10% fat, 30% protein, and 60% carbohydrate; Trouw Nutrition, Northwich, UK), and drinking water provided ad libitum. Mice were housed individually and kept in a temperature‐controlled environment (22 ± 2°C), with a 12‐h light/dark cycle. Experiments were carried out in accordance with the UK Animal Scientific Procedures Act 1986 as well as being approved by Ulster University Animal Ethics Review Committee (AWERB) committee and protected by the UK Home Office Animal project license number PPL2902, approved on April 26, 2021. Acute effects of test peptides on food intake were tested in overnight (16 h) fasted mice. Briefly, fasted mice were administered an intraperitoneal (i.p.) injection of saline vehicle (0.9% (w/v) NaCl) alone or in combination with test peptides (each at 25, 75, or 200 nmol/kg bw) and cumulative food intake measured at regular intervals, to assess the pharmacodynamic profile of the test peptides. For food intake studies, mice were provided with preweighed rodent maintenance diet in their food hopper at t = 0 min, which was then re‐weighed at each timepoint with all due care taken to account for any wastage or crumbling of the food pellets. In this regard, the investigator was present at all times during the 180‐min test period to ensure accuracy and consistency in all measurements. Furthermore, effects of PP or related peptides (25 nmol/kg bw) on glucose homeostasis and insulin secretion were evaluated in overnight fasted mice following i.p. injection of glucose alone (18 mmol/kg bw) or in combination with PP peptides (each at 25 nmol/kg bw)."}, "[3]": {"test_system": "C57BL/6 mice", "test": "Glucose tolerance in mice", "format": "in vivo", "conditions": "PP peptide 25 nmol/kg with CCK‐8 25 nmol/kg and glucose 18 mmol/kg i.p.; n = 6", "procedure": "as §1, with “bw). […] Blood glucose was measured immediately using a hand‐held Ascencia Contour blood glucose meter (Bayer Healthcare, Newbury, Berkshire, UK). […]” for “bw).”"}, "[4]": {"test_system": "C57BL/6 mice", "test": "Glucose‐stimulated plasma insulin in mice", "format": "in vivo", "conditions": "peptide 25 nmol/kg with glucose 18 mmol/kg i.p., versus glucose control; n = 6", "procedure": "as §1, with “bw). […] Blood glucose was measured immediately using a hand‐held Ascencia Contour blood glucose meter (Bayer Healthcare, Newbury, Berkshire, UK). For plasma insulin, blood was collected in chilled fluoride/heparin‐coated microcentrifuge tubes (Sarstedt, Numbrecht, Germany) and centrifuged using a Beckman microcentrifuge (Beckman Instruments, Galway, Ireland) for 10 min at 12,000 rpm. Plasma was separated and stored at −20°C, until determination of plasma insulin by radioimmunoassay.[23]” for “bw).”"}},
  "note": "Starred links: 1 amine or outer side, 2 acyl side, 3 side chain; linkers in the order of their positions; H or OH if unused. Residues, ends and D or L forms follow the SMILES beside them. Groups on a side chain read outwards from the residue. *: point of attachment. γGlu = O=C(O)[C@H](CCC(=O)[*:2])N[*:1]; Palmitoyl = CCCCCCCCCCCCCCCC(=O)*",
  "data": [
    {"smiles": "CCCCCCCCCCCCCCCC(=O)N[C@@H](CCC(=O)NCCCC[C@H](NC(=O)[C@H](C)NC(=O)[C@H](CC(N)=O)NC(=O)[C@H](CC(=O)O)NC(=O)CNC(=O)[C@@H]1CCCN1C(=O)[C@H](Cc1ccc(O)cc1)NC(=O)[C@@H](NC(=O)[C@@H]1CCCN1C(=O)[C@H](CCC(=O)O)NC(=O)[C@@H]1CCCN1C(=O)[C@@H]1CCCN1C(=O)[C@H](C)N)C(C)C)C(=O)N1CCC[C@H]1C(=O)N[C@@H](CCC(=O)O)C(=O)N[C@@H](CCC(N)=O)C(=O)N[C@@H](CCSC)C(=O)N[C@@H](C)C(=O)N[C@@H](CCC(N)=O)C(=O)N[C@@H](Cc1ccc(O)cc1)C(=O)N[C@@H](C)C(=O)N[C@@H](C)C(=O)N[C@@H](CC(=O)O)C(=O)N[C@@H](CC(C)C)C(=O)N[C@@H](CCCNC(=N)N)C(=O)N[C@@H](CCCNC(=N)N)C(=O)N[C@@H](Cc1ccc(O)cc1)C(=O)N[C@H](C(=O)N[C@@H](CC(N)=O)C(=O)N[C@@H](CCSC)C(=O)N[C@@H](CC(C)C)C(=O)N[C@H](C(=O)N[C@@H](CCCNC(=N)N)C(=O)N1CCC[C@H]1C(=O)N[C@@H](CCCNC(=N)N)C(=O)N[C@@H](Cc1ccc(O)cc1)C(N)=O)[C@@H](C)O)[C@@H](C)CC)C(=O)O", "note": "[[P^3,K^13Pal]PP] (H-APPEPVYPGDNAK([γGlu-Palmitoyl])PEQMAQYAADLRRYINMLTRPRY-NH2; N-terminus assumed)", "values": [
      {"measurement": "remaining at 8 h", "setting": "[1]", "result": "> 99", "unit": "%"},
      {"measurement": "food intake in overnight fasted mice, summary in discussion", "setting": "[2]", "result": "retained impressive effects to restrict food intake"},
      {"measurement": "effect on CCK‐8 benefit on glucose disposal", "setting": "[3]", "result": "mildly impair the overall glucose‐lowering action of CCK‐8"},
      {"measurement": "glucose‐induced insulin secretion (plasma insulin)", "setting": "[4]", "result": "slightly decreasing (p = <0.05 to 0.01)"}
    ]}
  ]
}
